# Test results: article PMC4512978, “Synthesis and evaluation in rats of homologous series of [^18F]-labeled dopamine D2/3 receptor agonists based on the 2-aminomethylchroman scaffold as potential PET tracers” (EJNMMI Research, 2015)
# System: D2/3R
# Experiment: Kinetic analysis of PET data (1TCM, 2TCM, Logan, SRTM);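 for 2TCM BPND change relative to control: Raclopride 1 mg/kg intravenous pretreatment versus saline controls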;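 for SRTM BPND change relative to control: Raclopride 1 mg/kg intravenous pretreatment versus saline controls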
# Assay type: in vivo, Sprague-Dawley rats
# Design: key to SRTM BPND / 1TCM BPND / 2TCM BPND (VT-based): BPND = VT(target)/VT(cerebellum) − 1 (or SRTM, cerebellum reference); SRTM BPND change relative to control / 1TCM BPND change relative to control / 2TCM BPND change relative to control / Logan BPND change relative to control: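 Raclopride 1 mg/kg intravenous pretreatment versus saline controls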; 1TCM VT / 2TCM VT: unit not given here
# Procedure: Kinetic analysis is described using the nomenclature proposed by Innis et al.. ROI TACs of [^18F]FEt-AMC13 were analyzed with one-tissue and two-tissue compartmental models of reversible binding (1TCM and 2TCM, respectively) to obtain individual rate constants. From these, the regional distribution volumes (VT) were calculated and compared to those obtained with Logan graphical analysis. Binding potentials (BPND) were calculated from the distribution ratios as VT (target) / VT (cerebellum) – 1, or estimated with the simplified reference tissue model (SRTM) using the cerebellum as reference region.
# Metabolite-corrected plasma-derived arterial input function and whole blood time-activity curve were used for Logan, 1TCM, and 2TCM analyses. Fractional cerebral blood volume was set to 3.6 % [27]. For one rat in the raclopride-treated group, no input curves could be obtained; therefore, its PET data were only analyzed with SRTM.
# Degree of D2/3R-specific binding of the tracers was characterized by BPND (as given above) or the specific binding ratio (SBR) given as target region activity/cerebellar activity - 1. Both were calculated under control conditions and in response to the raclopride challenge.
# [1] = Cortex, raclopride, listed as [18F]FEt-AMC13
# [2] = Hippocampus, raclopride, listed as [18F]FEt-AMC13
# [3] = Hypothalamus, control rat A, SD could not be estimated
compound,measurement,setting,value
Oc1ccc2c(c1)O[C@@H](CNCc1ccc(OCC[18F])cc1)CC2 [[^18F]FEt-AMC13],2TCM k2,"Cortex, control rat C",0.19 ± 1.58 min⁻¹
same,2TCM k3,"Cortex, control rat C",1.50 ± 19.49 min⁻¹
same,2TCM k4,"Cortex, control rat C",1.00 ± 1.64 min⁻¹
same,1TCM K1,"Cortex, control rat D",0.47 ± 0.02 mL/g/min
same,1TCM k2,"Cortex, control rat D",0.09 ± 0.01 min⁻¹
same,2TCM K1,"Cortex, control rat D",1.46 ± 0.45 mL/g/min
same,2TCM k2,"Cortex, control rat D",6.65 ± 0.77 min⁻¹
same,2TCM k3,"Cortex, control rat D",2.62 ± 1.18 min⁻¹
same,2TCM k4,"Cortex, control rat D",0.11 ± 6.33 min⁻¹
same,1TCM BPND,"Cortex, raclopride",0.17±0.05
same,1TCM BPND change relative to control,"Cortex, raclopride",-9%
same,1TCM VT,"Cortex, raclopride",5.17±0.60
same,2TCM BPND (VT-based),"Cortex, raclopride",0.10 ± 0.02
same,2TCM BPND change relative to control,"Cortex, raclopride",−27%
same,2TCM VT,"Cortex, raclopride",5.45±0.52
same,Logan BPND,"Cortex, raclopride",0.09±0.03
same,Logan BPND change relative to control,"Cortex, raclopride",-32%
same,Logan VT,"Cortex, raclopride",5.42±0.44
same,SRTM BPND,"Cortex, raclopride",0.08 ± 0.02
same,SRTM BPND change relative to control,"Cortex, raclopride",−24%
same,2TCM BPND (VT-based),[1],0.10±0.02
same,2TCM BPND change relative to control,[1],-27%
same,SRTM BPND,[1],0.08±0.02
same,SRTM BPND change relative to control,[1],–24%
same,1TCM BPND,"Hippocampus, control",0.35±0.11
same,1TCM VT,"Hippocampus, control",6.34±0.71
same,2TCM BPND (VT-based),"Hippocampus, control",0.30 ± 0.07
same,2TCM VT,"Hippocampus, control",6.62±0.86
same,Logan BPND,"Hippocampus, control",0.28±0.04
same,Logan VT,"Hippocampus, control",6.49±0.88
same,SRTM BPND,"Hippocampus, control",0.26 ± 0.04
same,1TCM K1,"Hippocampus, control rat A",0.41 ± 0.02 mL/g/min
same,1TCM k2,"Hippocampus, control rat A",0.06 ± 0.01 min⁻¹
same,2TCM K1,"Hippocampus, control rat A",2.21 ± 1.25 mL/g/min
same,2TCM k2,"Hippocampus, control rat A",8.56 ± 3.62 min⁻¹
same,2TCM k3,"Hippocampus, control rat A",1.60 ± 2.24 min⁻¹
same,2TCM k4,"Hippocampus, control rat A",0.05 ± 8.88 min⁻¹
same,1TCM K1,"Hippocampus, control rat B",0.51 ± 0.02 mL/g/min
same,1TCM k2,"Hippocampus, control rat B",0.08 ± 0.01 min⁻¹
same,2TCM K1,"Hippocampus, control rat B",0.71 ± 0.07 mL/g/min
same,2TCM k2,"Hippocampus, control rat B",0.50 ± 0.23 min⁻¹
same,2TCM k3,"Hippocampus, control rat B",0.50 ± 0.27 min⁻¹
same,2TCM k4,"Hippocampus, control rat B",0.14 ± 0.03 min⁻¹
same,1TCM K1,"Hippocampus, control rat C",0.46 ± 0.01 mL/g/min
same,1TCM k2,"Hippocampus, control rat C",0.08 ± 0.004 min⁻¹
same,2TCM K1,"Hippocampus, control rat C",0.60 ± 0.12 mL/g/min
same,2TCM k2,"Hippocampus, control rat C",0.57 ± 0.77 min⁻¹
same,2TCM k3,"Hippocampus, control rat C",1.17 ± 1.34 min⁻¹
same,2TCM k4,"Hippocampus, control rat C",0.24 ± 0.09 min⁻¹
same,1TCM K1,"Hippocampus, control rat D",0.48 ± 0.02 mL/g/min
same,1TCM k2,"Hippocampus, control rat D",0.08 ± 0.01 min⁻¹
same,2TCM K1,"Hippocampus, control rat D",101 ± 14615 mL/g/min
same,2TCM k2,"Hippocampus, control rat D",1246 ± 181990 min⁻¹
same,2TCM k3,"Hippocampus, control rat D",5.49 ± 4.23 min⁻¹
same,2TCM k4,"Hippocampus, control rat D",0.07 ± 0.05 min⁻¹
same,1TCM BPND,"Hippocampus, raclopride",0.33±0.09
same,1TCM BPND change relative to control,"Hippocampus, raclopride",-8%
same,1TCM VT,"Hippocampus, raclopride",5.88±0.56
same,2TCM BPND (VT-based),"Hippocampus, raclopride",0.26 ± 0.06
same,2TCM BPND change relative to control,"Hippocampus, raclopride",−13%
same,2TCM VT,"Hippocampus, raclopride",6.27±0.63
same,Logan BPND,"Hippocampus, raclopride",0.25±0.05
same,Logan BPND change relative to control,"Hippocampus, raclopride",-10%
same,Logan VT,"Hippocampus, raclopride",6.25±0.56
same,SRTM BPND,"Hippocampus, raclopride",0.23 ± 0.05
same,SRTM BPND change relative to control,"Hippocampus, raclopride",−13%
same,2TCM BPND (VT-based),[2],0.26±0.06
same,2TCM BPND change relative to control,[2],-13%
same,SRTM BPND,[2],0.23±0.05
same,SRTM BPND change relative to control,[2],–13%
same,1TCM BPND,"Hypothalamus, control",0.25±0.04
same,1TCM VT,"Hypothalamus, control",5.86±0.60
same,2TCM BPND (VT-based),"Hypothalamus, control",0.22 ± 0.03
same,2TCM VT,"Hypothalamus, control",6.20±0.55
same,Logan BPND,"Hypothalamus, control",0.21±0.04
same,Logan VT,"Hypothalamus, control",6.10±0.44
same,SRTM BPND,"Hypothalamus, control",0.21 ± 0.03
same,1TCM K1,"Hypothalamus, control rat A",0.40 ± 0.03 mL/g/min
same,1TCM k2,"Hypothalamus, control rat A",0.06 ± 0.01 min⁻¹
same,2TCM K1,[3],273 mL/g/min
same,2TCM k2,[3],1355 min⁻¹
same,2TCM k3,[3],1.65 min⁻¹
same,2TCM k4,[3],0.05 min⁻¹
same,1TCM K1,"Hypothalamus, control rat B",0.53 ± 0.03 mL/g/min
same,1TCM k2,"Hypothalamus, control rat B",0.09 ± 0.01 min⁻¹
same,2TCM K1,"Hypothalamus, control rat B",1.17 ± 0.88 mL/g/min
same,2TCM k2,"Hypothalamus, control rat B",3.45 ± 1.30 min⁻¹
same,2TCM k3,"Hypothalamus, control rat B",2.22 ± 6.73 min⁻¹
same,2TCM k4,"Hypothalamus, control rat B",0.13 ± 14.19 min⁻¹
same,1TCM K1,"Hypothalamus, control rat C",0.50 ± 0.02 mL/g/min
same,1TCM k2,"Hypothalamus, control rat C",0.08 ± 0.01 min⁻¹
same,2TCM K1,"Hypothalamus, control rat C",0.64 ± 0.24 mL/g/min
same,2TCM k2,"Hypothalamus, control rat C",0.63 ± 1.60 min⁻¹
same,2TCM k3,"Hypothalamus, control rat C",1.37 ± 2.85 min⁻¹
same,2TCM k4,"Hypothalamus, control rat C",0.27 ± 0.20 min⁻¹
same,1TCM K1,"Hypothalamus, control rat D",0.59 ± 0.04 mL/g/min
same,1TCM k2,"Hypothalamus, control rat D",0.12 ± 0.02 min⁻¹
same,2TCM K1,"Hypothalamus, control rat D",680 ± 116990 mL/g/min
same,2TCM k2,"Hypothalamus, control rat D",3105 ± 534810 min⁻¹
same,2TCM k3,"Hypothalamus, control rat D",2.16 ± 0.48 min⁻¹
